Assay results taken from patent publication US9688723B2, “C4S proteoglycan specific transporter molecules” (PHI PHARMA SA, priority 2012, dated 2017).
“Also recorded” adds a separate entry of the source. Where no end group is shown, it is not given here. [ ]: non-standard residue; d: D form.

Key:
[1] = system: Raw macrophage-derived cells; assay: Cell proliferation assay (phenol red, LDH content); assay type: cell-based; conditions: for Effect on growth of raw macrophage-derived cells: 2.5 μM, 48 hrs, phenol red / LDH content
Description: Use of the exemplary peptide of the invention as a carrier moiety was also examined in a cell proliferation assay. Raw macrophage-derived cells were incubated for 48 hrs with 2.5 μM of the indicated nucleoside analog or the analog as a conjugate with the RYF peptide in the presence of phenol red. Cultures containing dividing cells turn medium clear, while the medium of cultures containing in non-dividing cells remains dark (active compounds). Percentage growth was also determined by measuring the relative content of LDH (FIG. 11B). […] For example, the “ribo” and “tg” (Thioguanine) compounds have no effect at the concentration tested (2.5 μm), but become potently cytotoxic when conjugated to an exemplary peptide transporter of the invention (i.e., RYF).
The Experiment was repeated to investigate the effects of the L- or D-linkage on cytotoxic properties of the BAM moiety. The cells were incubated with 3′ amino β-D-arabinofuranoside either alone or in the form of a conjugate with the RYF peptide. […] However, once the 3′ position is conjugated to a D-entantiomer, it cannot be removed by a protease, and once incorporated into the DNA-strand, it will function to prevent further DNA elongation.
The experiment was repeated with 3′AdT (3′ amino deoxythymidine) and 3′ amino β-D-arabinofuranoside (Ribo). Cells were incubated with each of the compounds alone or as an N-terminally linked conjugate to the RYF peptide via either L-Glu (E) or D-Glu (e). The cells were then incubated for 72 hrs before LDH content was measured.

[2] = system: leukemia/lymphoma cell lines; assay: Cancer cell line screening panel, summary over leukemia/lymphoma lines; assay type: cell-based, human; conditions: 6 leukemia/lymphoma cell lines
Description: (§1) The use of peptides of the invention as carrier molecules was investigated in a screening panel of human cancer cell lines. The human tumor cell lines of the cancer screening panel were grown in RPMI 1640 medium containing 5% fetal bovine serum and 2 mM L-glutamine. For a typical screening experiment, cells were inoculated into 96 well microtiter plates in volumes of 100 μL at plating densities ranging from 5,000 to 40,000 cells/well depending on the doubling time of individual cell lines. […] After 24 h, two plates of each cell line were fixed in situ with TCA to provide a measurement of the cell population at the time of drug addition (Tz). The experimental therapeutics were solubilized in dimethyl sulfoxide at 400-fold the desired final maximum test concentration and stored frozen prior to use. […] Bound stain was subsequently solubilized with 10 mM trizma base, and the absorbance was read on an automated plate reader at a wavelength of 515 nm. […] Using the seven absorbance measurements [time zero, (Tz), control growth, (C), and test growth in the presence of compound at the five concentration levels (Ti)], the percentage growth was calculated at each of the compound concentrations levels. Percentage growth inhibition was calculated as: [(Ti−Tz)/(C−Tz)]×100 for concentrations for which Ti≧Tz [(Ti−Tz)/Tz]×100 for concentrations for which Ti<Tz.

[3] = system: cell lines from other lineages; assay: Cancer cell line screening panel, summary over other lineages; assay type: cell-based, human; conditions: 54 cell lines from other lineages
Description: as §1

Macrophages = assay: FITC-RYF binding to chlorate pre-treated macrophages; assay type: cell-based; conditions: 0, 3, 10 or 30 μM chlorate for 16 hours
Description: The same fluorescent microscopy procedure was used to assess the binding of the FITC-RYF peptide on C4S expressing cells pre-treated with chlorate. Chlorate is an inhibitor of sulfotransferases, and, thus, chlorate treatment decreases or inhibits C4S expression. Macrophages were treated with 0, 3, 10 or 30 μM chlorate for 16 hours prior to washing, incubation with RYF (SEQ ID NO:2) peptide and photography as described above.

[4] = system: chondroitin-4-sulfate (C4S); assay: Modified ELISA, peptide binding to coated proteoglycans
Description: The binding of the nine-mer peptides of the invention to C4S predicted by the models, in particular, as compared to the binding to other proteoglycans was tested using a modified ELISA protocol. ELISA plates were coated overnight with 1 mg/ml of heparin sulphate (HS), chondroitin-4-sulfate (C4S), chondroitin-6-sulfate (C6S) or hyaluronic acid (HA) in PBS. The wells were then washed with PBS and incubated for 1 hour at room temperature with 1 mg/ml of an exemplary peptide of the invention having the sequence RYFvRIKYRh (“RYF”; SEQ ID NO:2) or a standard TAT peptide. The plates were then thoroughly washed with PBS and subsequently photographed with a LUMASCOPE™ luminescent microscope. Images were then quantified using the ImageJ software (FIG. 4).
The same modified ELISA protocol was used to examine the impact of altering the chirality of the amino acid residues at positions 1, 5, 9 and 3 or 7 on the binding of the peptides to C4S. […] In FIG. 5, an upper case letter indicates an L-enantiomer and a lower case letter indicates a D-enantiomer.

Sog9 cells = assay: FITC-peptide binding to cells lacking C4S, fluorescence microscopy; assay type: cell-based; set-up: dose or concentration left out as unconfirmed; conditions: FITC conjugated peptide, 24 hrs
Excerpt: (§2) As explained throughout the description, the present molecules are able to selectively bind C4S over other proteoglycans.

CHO cells = assay: FITC-peptide binding to C4S expressing cells, fluorescence microscopy; assay type: cell-based; set-up: dose or concentration left out as unconfirmed; conditions: FITC conjugated peptide, 24 hrs
Excerpt: as §2

Row | Compound | Effect on growth of raw macrophage-derived cells [1] | Activity on cell growth (LDH content) ([1]; 72 hrs, alone or N-terminally linked to RYF via L-Glu (E) or D-Glu (e)) | mean growth [2] | mean growth [3] | Binding to macrophages pre-treated with chlorate (Macrophages) | Binding to C4S ([4]; ELISA plates coated with 1 mg/ml C4S, 1 mg/ml peptide, 1 hour, room temperature) | Selective binding to C4S over other proteoglycans ([4]; versus heparin sulphate (HS), chondroitin-6-sulfate (C6S), hyaluronic acid (HA)) | Binding to Sog9 cells lacking C4S (Sog9 cells) | Binding to CHO cells expressing C4S (CHO cells)
1 | 3′ amino β-D-arabinofuranoside [Ribo] | no effect | inactive |  |  |  |  |  |  | 
2 | Nc1nc2nc[nH]c2c(=S)[nH]1 [tg, Thioguanine] | no effect |  | 44.13 % of untreated | 86.65 % of untreated |  |  |  |  | 
3 | RYFvRIKYRh (RYF[dV]RIKYR[dH]) |  |  |  |  | binding correlated with chondroytine sulfate expression; also recorded: binding decreased with decreasing C4S expression | specifically binds to the C4S proteoglycan | selectively binds C4S over the other proteoglycans tested; also recorded: specifically and selectively binds C4S over other proteoglycans | did not bind; also recorded: failed to bind | intense, uniform binding
